The values below come from US6469028B1, “Synthesis and use of retinoid compounds having negative hormone and/or anatgonist activities” (Allergan, Inc., priority 1995, dated 2002).

Molecules are shown by their SMILES. pKd: −log10 of the molar value.

Holding throughout (test): Ligand binding assay
Assay [1] addresses T1, RARγ (Homo sapiens, UniProt P13631).
T1 sequence (P13631 1-454): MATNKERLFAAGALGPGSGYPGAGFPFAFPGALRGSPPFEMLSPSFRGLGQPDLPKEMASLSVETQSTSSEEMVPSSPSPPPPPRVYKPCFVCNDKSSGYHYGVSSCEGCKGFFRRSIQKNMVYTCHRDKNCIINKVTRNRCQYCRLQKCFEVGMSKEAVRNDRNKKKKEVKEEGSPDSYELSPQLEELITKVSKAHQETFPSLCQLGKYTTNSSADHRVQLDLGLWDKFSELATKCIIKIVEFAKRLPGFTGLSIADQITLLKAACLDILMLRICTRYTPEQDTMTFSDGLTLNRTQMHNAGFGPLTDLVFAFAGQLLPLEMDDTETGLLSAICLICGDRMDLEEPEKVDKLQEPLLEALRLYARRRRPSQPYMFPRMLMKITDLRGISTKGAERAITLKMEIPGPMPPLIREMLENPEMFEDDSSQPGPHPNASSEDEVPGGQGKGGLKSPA
Details: expressed in transfected cells; host or cells: CV1 cells. To be noted: read-out: Kd (nanomolar) RARγ. The text has this: (§1) A holoreceptor transactivation assay and a ligand binding assay which measure the antagonist/agonist like activity of the compounds of the invention, or their ability to bind to the several retinoid receptor subtypes, respectively, are described in published PCT Application No. WO93/11755 (particularly on pages 30-33 and 37-41) published on Jun. 24, 1993, the specification of which is also incorporated herein by reference. A description of the holoreceptor transactivation assay is also provided below.
(§2) CV1 cells (5,000 cells/well) were transfected with an RAR reporter plasmid MTV-TREp-LUC (50 ng) along with one of the RAR expression vectors (10 ng) in an automated 96-well format by the calcium phosphate procedure of Heyman et al. Cell 68: 397-406. For RXR-α and RXR-γ transactivation assays, an RXR-responsive reporter plasmid CRBPII-tk-LUC (50 ng) along with the appropriate RXR expression vectors (10 ng) was used substantially as described by Heyman et al. above, and Allegretto et al. J. Biol. Chem. 268: 26625-26633. For RXR-β transactivation assays, an RXR-responsive reporter plasmid CPRE-tk-LUC ([…]) along with RXR-β expression vector ([…]) was used as described in above. These reporters contain DRI elements from human CRBPII and certain DRI elements from promotor, respectively (see Mangelsdorf et al. The Retinoids: Biology Chemistry and Medicine, pp. 319-349, Raven Press Ltd., New York and Heyman et al., cited above). A β-galactosidase (50 ng) expression vector was used as an internal control in the transfections to normalize for variations in transfection efficiency. The cells were transfected in triplicate for 6 hours, followed by incubation with retinoids for 36 hours, and the extracts were assayed for luciferase and […] activities. The detailed experimental procedure for holoreceptor transactivations has been described in Heyman et al. above, and Allegretto et al. cited above. The results obtained in this assay are expressed in EC50 numbers, as they are also in the chimeric receptor transactivation assay. The Heyman et al. Cell 68: 397-406, Allegretto et al. J. Biol. Chem. 268: 26625-26633, and Mangelsdorf et al. The Retinoids: Biology, Chemistry, and Medicine, pp. 319-349, Raven Press Ltd., New York, are expressly incorporated herein by reference. The results of ligand binding assay are expressed in Kd numbers. (See Cheng et al. Biochemical Pharmacology 22: 3099-3108, expressly incorporated herein by reference.) […]

Assay [2] deals with T2, RARα (Homo sapiens, UniProt P10276).
T2 sequence (P10276 1-462): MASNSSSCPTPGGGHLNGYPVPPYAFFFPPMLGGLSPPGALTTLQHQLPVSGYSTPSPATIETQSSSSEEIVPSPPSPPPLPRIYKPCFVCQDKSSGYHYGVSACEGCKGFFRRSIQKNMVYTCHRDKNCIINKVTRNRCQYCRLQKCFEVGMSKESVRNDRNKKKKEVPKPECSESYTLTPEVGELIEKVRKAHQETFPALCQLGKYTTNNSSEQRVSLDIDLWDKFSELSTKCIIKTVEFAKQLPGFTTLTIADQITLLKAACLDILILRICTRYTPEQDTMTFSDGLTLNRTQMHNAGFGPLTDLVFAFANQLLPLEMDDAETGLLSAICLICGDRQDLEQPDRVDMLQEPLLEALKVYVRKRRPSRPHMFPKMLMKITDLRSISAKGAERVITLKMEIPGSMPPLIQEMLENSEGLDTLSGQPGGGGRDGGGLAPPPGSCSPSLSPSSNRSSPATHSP
Details: expressed in transfected cells; host or cells: CV1 cells. To be noted: read-out: Kd (nanomolar) RARα.
From the text: as §1, §2

Assay [3] concerns the target T3, RARβ (Homo sapiens, UniProt P10826).
T3 sequence (P10826 1-455): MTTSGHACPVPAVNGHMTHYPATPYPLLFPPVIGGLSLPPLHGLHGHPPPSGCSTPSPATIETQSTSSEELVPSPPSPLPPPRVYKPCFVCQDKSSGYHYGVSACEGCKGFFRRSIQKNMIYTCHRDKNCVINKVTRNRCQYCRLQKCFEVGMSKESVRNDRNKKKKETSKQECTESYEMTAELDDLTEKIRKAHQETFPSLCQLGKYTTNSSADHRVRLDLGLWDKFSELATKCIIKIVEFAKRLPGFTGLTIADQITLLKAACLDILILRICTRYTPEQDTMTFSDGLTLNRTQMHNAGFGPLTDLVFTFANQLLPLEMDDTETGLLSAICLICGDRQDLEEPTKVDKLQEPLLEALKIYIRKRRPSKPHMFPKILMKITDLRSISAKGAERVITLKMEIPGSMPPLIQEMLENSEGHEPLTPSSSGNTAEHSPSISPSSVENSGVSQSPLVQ
To be noted: read-out: Kd (nanomolar) RARβ.
From the text: as §1, §2

The pKd is the negative decadic logarithm of the Kd, by convention in mol/L.

As for `Cc1ccc(C2=CCC(C)(C)c3ccc(C(=O)Oc4ccc(C(=O)O)cc4)cc32)cc1` [Compound 39, 4-[[(5,6-Dihydro-5,5-dimethyl-8-(4-methylphenyl)-2-naphthalenyl)carbonyl]oxy]-benzoic acid], the pKd is 6.95 in assay [1], 7.17 in assay [2] and 7.42 in assay [3].

With `Cc1ccc(C2=CCC(C)(C)c3ccc(C(=O)Nc4ccc(C(=O)O)c(F)c4)cc32)cc1` [Compound 41, 2-Fluoro-4-[[(5,6-dihydro-5,5-dimethyl-8-(4methylphenyl)-2-naphthalenyl)carbonyl]amino]-benzoic acid], the pKd is 6.14 in assay [1], 8.29 in assay [2] and 6.31 in assay [3].

As for `Cc1ccc(C2=CCC(C)(C)c3ccc(/C=C/c4ccc(C(=O)O)cc4)cc32)cc1` [Compound 45], the pKd in assay [1] was 7.77; in assay [2], 7.92; in assay [3], 8.55.

Turning to `Cc1ccc(C2=CCC(C)(C)c3ccc(N=Nc4ccc(C(=O)O)cc4)cc32)cc1` [Compound 46b, 4-[(5,6-dihydro-5,5-dimethyl-8-(4-methylphenyl)-2-naphthalenyl)azo]-benzoic acid], the pKd was 8.24 in assay [1], 6.60 in assay [2] and 8.43 in assay [3].

With `CC(/C=C/C=C(\C)c1ccc2c(c1)C(c1ccc(C)cc1)=CCC2(C)C)=C\C(=O)O` [Compound 52, (E,E,E)-3-methyl-7-(5,6-dihydro-5,5-dimethyl-8-(4-methylphenyl)-2-naphthalenyl)-2,4,6-octatrienoic acid], the pKd was 7.25 in assay [1], 7.22 in assay [2] and 7.20 in assay [3].

Turning to `Cc1ccc(C2=CCC(C)(C)c3ccc(C#Cc4ccc(C(=O)O)cc4)cc32)cc1` [Compound 60, 4-[(5,6-dihydro-5,5-dimethyl-8-(4-methylphenyl)-2-naphthalenyl)ethynyl]benzoic acid], the pKd in assay [1] is 8.48; in assay [2], 8.82; in assay [3], 8.72.

With `CC(C)(C)c1ccc(C2=CCC(C)(C)c3ccc(C#Cc4ccc(C(=O)O)cc4)cc32)cc1` [Compound 61, 4-[(5,6-Dihydro-5,5-dimethyl-8-(4-(1,1-dimethylethyl)phenyl)-2-naphthalenyl)ethynyl]benzoic acid], the pKd in assay [1] was 7.80; in assay [2], 7.02; in assay [3], 7.82.

For `Cc1ccc(C2=CCC(C)(C)c3cc(C(=O)C=Cc4ccc(C(=O)O)cc4)ccc32)cc1` [Compound 101, 4-[3-oxo-3-(7,8-dihydro-5-(4-methylphenyl)-8,8-dimethyl-2-naphthalenyl)-1-propenyl]-benzoic acid], the figures for the pKd in assay [1], in assay [2] and in assay [3] were 6.20, 6.12 and 6.84, respectively.

Consider `CC1(C)CC=C(c2ccccc2)c2ccc(C(=O)C=Cc3ccc(C(=O)O)cc3)cc21` [Compound 103, 4-[3-oxo-3-(7,8-dihydro-5-phenyl-8,8-dimethyl-2-naphthalenyl)-1-propenyl]-benzoic acid], for which the pKd is 6.58 in assay [1], 6.52 in assay [2] and 6.56 in assay [3].
